Measured values reported in PubChem BioAssay (NCI).
Values joined by “and” are separate entries in the source; they are usually repeats but may differ in a detail not shown here. Equal values may be shown once.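 1) Cells in 96-well plates. 2) Compound, 48 h, 5 concentrations. 3) Linear interpolation between surrounding doses. 4) Unreached endpoint = highest concentration. GI50 = concentration required for 50% inhibition of growth. TGI denotes the concentration required for complete inhibition of growth.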

How the values were obtained:
Assay in all cases: NCI anticancer screen, dose series, 48 h
[1] = system: NCI/ADR-RES ovarian
[2] = system: SR leukemia
[3] = system: SNB-19 CNS
[4] = system: OVCAR-8 ovarian
[5] = system: MDA-MB-435
[6] = system: MDA-MB-231 breast
[7] = system: SK-MEL-28 melanoma
[8] = system: TK-10 renal
[9] = system: CAKI-1 renal
[10] = system: SK-MEL-5 melanoma

SMILES	TGI [1]	TGI [2]	TGI [3]	TGI [4]	TGI [5]	TGI [6]	TGI [7]	TGI [8]	TGI [9]	TGI [10]	GI50 [1]	GI50 [2]	GI50 [3]	GI50 [4]	GI50 [5]	GI50 [6]	GI50 [7]	GI50 [8]	GI50 [9]	GI50 [10]
O=C(N/N=C/c1ccccc1)c1c(F)c(F)c(F)c(F)c1F	> 100 µM	> 100 µM	> 100 µM	> 100 µM	> 100 µM	> 100 µM	> 100 µM	> 100 µM	> 100 µM	> 100 µM	–	–	–	–	–	–	–	–	–	–
BrC1(c2ccccc2)C[n+]2c(-c3ccccc3)cc(-c3ccccc3)cc2-c2ccccc21 (stereo not drawn)	65.5 µM	> 42.5 µM	17.5 µM	6.37 µM	0.538 µM	1.63 µM	21.2 µM	20.6 µM	9.66 µM	0.366 µM	–	–	–	–	–	–	–	–	–	–
CC1(C)C(=O)/C(=C/c2ccccc2)C(C)(C)C1(C)C	> 100 µM	> 74.2 µM	> 100 µM	> 100 µM	> 86.6 µM	> 100 µM	> 100 µM	> 100 µM	> 100 µM	> 100 µM	–	–	–	–	–	–	–	–	–	–
COc1ccc(C2C(=O)c3ccc(OC)cc3OC2c2cccnc2)cc1 (stereo not drawn)	> 100 µM	> 100 µM	> 100 µM	> 100 µM	> 100 µM	> 100 µM	> 100 µM	> 100 µM	> 100 µM	> 100 µM	–	–	–	–	–	–	–	–	–	–
O=C(OCCN=c1c2ccccc2ccc2ccccc12)c1cc([N+](=O)[O-])cc([N+](=O)[O-])c1	> 100 µM	> 100 µM	> 100 µM	> 100 µM	> 100 µM	> 100 µM	> 100 µM	> 100 µM	> 100 µM	> 100 µM	–	–	–	–	–	–	–	–	–	–
COc1ccc(O[C@H](CO)C[C@@H]2COC(C)(C)O2)cc1	> 100 µM	> 100 µM	> 100 µM	> 100 µM	> 100 µM	> 100 µM	> 100 µM	> 100 µM	> 100 µM	> 100 µM	–	–	–	–	–	–	–	–	–	–
CC(C)CNP(=O)(NCC(C)C)Oc1ccc(CC(NC(=O)OCc2ccccc2)C(=O)OCc2ccccc2)cc1 (stereo not drawn)	> 100 µM	29.2 µM	57.8 µM	32.7 µM	22.8 µM	34.9 µM	30.5 µM	> 100 µM	> 100 µM	45.8 µM	–	–	–	–	–	–	–	–	–	–
Cc1cc2nc(N3C(=O)/C(=C/Cc4ccco4)N=C3c3ccccc3)sc2cc1C	> 100 µM	> 100 µM	> 100 µM	> 100 µM	50.5 µM	> 100 µM	> 100 µM	> 100 µM	> 100 µM	> 100 µM	–	–	–	–	–	–	–	–	–	–
Cc1ccc(S(=O)(=O)N/N=c2/sc3ccccc3n2C)cc1	> 100 µM	> 100 µM	> 100 µM	> 100 µM	> 100 µM	> 100 µM	> 100 µM	> 100 µM	> 100 µM	> 100 µM	–	–	–	–	–	–	–	–	–	–
O=c1[nH]ncc2[nH]c3c(c12)CCc1ccccc1-3	> 100 µM	> 100 µM	> 100 µM	> 100 µM	> 100 µM	> 100 µM	> 100 µM	81.2 µM	> 100 µM	25 µM	–	–	–	–	–	–	–	–	–	–
C[n+]1c2ccccc2n2c3ccccc3c(NCCCn3ccnc3)c(C#N)c21	> 93.5 µM	> 100 µM	> 31.2 µM	8.43 µM	9.4 µM	9.18 µM	13.3 µM	59.5 µM	> 43.1 µM	13.1 µM	–	–	–	–	–	–	–	–	–	–
O=S(Nc1ccccc1)c1ccc(Cl)cc1 (stereo not drawn)	> 100 µM	> 100 µM	> 100 µM	> 100 µM	> 100 µM	> 100 µM	> 100 µM	> 100 µM	> 100 µM	> 100 µM	–	–	–	–	–	–	–	–	–	–
COc1ccc(S(=O)(=O)NC(CCC(=O)NC(N)=O)C(=O)NC(N)=O)cc1 (stereo not drawn)	> 100 µM	> 100 µM	> 100 µM	> 100 µM	> 100 µM	> 100 µM	> 100 µM	> 100 µM	> 100 µM	> 100 µM	–	–	–	–	–	–	–	–	–	–
CC1(C)CCC[C@@]2(C)C1CC[C@@]1(CO)O[C@H](C3=CC(=O)OC3O)C[C@H]12 (stereo partly drawn)	36.7 µM	7.58 µM	32.3 µM	36.2 µM	24.6 µM	36.1 µM	25.6 µM	34.4 µM	28.6 µM	20.9 µM	–	–	–	–	–	–	–	–	–	–
NC(=O)CSc1nc2ccccc2c(=O)n1N	> 100 µM	> 100 µM	> 100 µM	> 100 µM	> 100 µM	> 100 µM	> 100 µM	> 100 µM	> 100 µM	> 100 µM	–	–	–	–	–	–	–	–	–	–
O=C(Nc1ccc(-n2cc(-c3ccncc3)c(-c3ccc(O)c(Cl)c3)n2)cc1)Nc1cc(C(F)(F)F)cc(C(F)(F)F)c1	22.5 µM	31.3 µM	16.5 µM	11.7 µM	12.8 µM	14.6 µM	16.5 µM	13.6 µM	12.8 µM	15.5 µM	4.94 µM	6.06 µM	4.45 µM	3.44 µM	3.37 µM	3.61 µM	4480 nM	3.55 µM	3.34 µM	4.08 µM

SMILES	TGI [1]	TGI [2]	TGI [3]	TGI [4]	TGI [5]	TGI [6]	TGI [7]	TGI [8]	TGI [9]	TGI [10]	GI50 [1]	GI50 [2]	GI50 [3]	GI50 [4]	GI50 [5]	GI50 [6]	GI50 [7]	GI50 [8]	GI50 [9]	GI50 [10]
CCNC(=S)N/N=C(/C)c1cccc(/C(C)=N\NC(=S)NCC)n1	21.1 µM	> 15.7 µM	> 100 µM	16.9 µM	> 100 µM	> 84.2 µM	> 100 µM	19.1 µM	74.1 µM	5.52 µM	–	–	–	–	–	–	–	–	–	–
Cc1n[nH]c(=O)n1-n1cccc1	> 100 µM	> 100 µM	> 100 µM	> 100 µM	> 100 µM	> 100 µM	> 100 µM	> 100 µM	> 100 µM	> 100 µM	–	–	–	–	–	–	–	–	–	–
Cc1nnc(SCc2nc(C#N)c(C#N)nc2CSc2nnc(C)s2)s1	> 92.2 µM	51.4 µM	> 100 µM	> 100 µM	26.4 µM	31.4 µM	> 90.8 µM	16.3 µM	11.6 µM	29.2 µM	–	–	–	–	–	–	–	–	–	–
COc1ccc2oc(=O)c(-c3cc4c(c(C)n3)c(=O)oc3ccc(OC)cc34)cc2c1	> 100 µM	> 100 µM	57.6 µM	> 100 µM	> 100 µM	> 100 µM	> 100 µM	> 100 µM	> 100 µM	> 100 µM	–	–	–	–	–	–	–	–	–	–
COc1ccccc1N=Nc1c(O)ccc2ccccc12	> 100 µM	> 100 µM	> 74.7 µM and 90.4 µM	> 100 µM	> 100 µM	> 100 µM	> 100 µM	31.8 µM and 59.1 µM	38.8 µM and 48.6 µM	> 89.9 µM and 59.2 µM	–	–	–	–	–	–	–	–	–	–
Cc1ccc(C(=O)Nc2ccc(CP(=O)(O)O)cc2CP(=O)(O)O)cc1N	> 100 µM	> 100 µM	> 100 µM	> 100 µM	> 100 µM	> 100 µM	> 100 µM	> 100 µM	> 100 µM	> 100 µM	–	–	–	–	–	–	–	–	–	–
Cn1c(CO)ccc1-c1ccc(-c2ccc(CO)[se]2)[se]1	> 100 µM	> 100 µM	> 100 µM	55.6 µM	45.6 µM	> 67.2 µM	> 100 µM	> 78.1 µM	0.0381 µM	6.74 µM	–	–	–	–	–	–	–	–	–	–
CN(Cc1cnc2nc(N)nc(N)c2n1)c1ccc(C(=O)NC(CCC(=O)O)C(=O)O)c2ccccc12 (stereo not drawn)	> 1000 µM	> 1000 µM	> 1000 µM	> 1000 µM	> 1000 µM	> 1000 µM	–	> 1000 µM	> 1000 µM	> 1000 µM	–	–	< 0.0174 µM	–	–	> 1000 µM	61.6 nM	> 1000 µM	–	–
CCCCCCCCCCCCCCCCNc1nc(=O)n(C2OC(C)C(O)C2O)cc1F (stereo not drawn)	43.8 µM	> 100 µM	39.7 µM	52.6 µM	30.5 µM	42 µM	37.5 µM	30.6 µM	41.8 µM	43.4 µM	–	–	–	–	–	–	–	–	–	–
COCc1cc2c(s1)C(=O)C1=C(C2=O)C2(C=C(Br)C(=O)C(Br)=C2)CCN1	9.41 µM	8.35 µM	35.5 µM	14.8 µM	2.94 µM	15.2 µM	20.3 µM	32.4 µM	34.6 µM	5.62 µM	–	–	–	–	–	–	–	–	–	–
Cc1cc(NC(=O)NC(=O)c2ccccc2NC(=O)CN(C)C)ccc1Oc1ncc(Br)cn1	> 27.8 µM	> 79.5 µM	> 100 µM	> 100 µM	3.09 µM	> 78.1 µM	> 56.2 µM	> 100 µM	64.3 µM	> 100 µM	–	–	–	–	–	–	–	–	–	–
Cn1c2c(c3c(=O)[nH]ncc31)Cc1ccccc1-2	> 100 µM	28.4 µM	> 100 µM	62.8 µM	35.1 µM	98.2 µM	60.1 µM	29.3 µM	> 100 µM	34.9 µM	–	–	–	–	–	–	–	–	–	–
CC(C)OC(=O)C(NC(=O)C(CC(=O)OCc1ccccc1)NC(=O)OCc1ccccc1)NC(=O)C1C(C)(C)CCC1(C)C (stereo not drawn)	21.2 µM	7.5 µM	16.1 µM	4.19 µM	> 53.3 µM	7.82 µM	> 56.2 µM	34.5 µM	21.9 µM	27.1 µM	–	–	–	–	–	–	–	–	–	–
CC(=O)Oc1cc2c(cc1OCC(F)(F)F)[C@H]1CC[C@]3(C)[C@@H](OC(C)=O)CC[C@H]3[C@@H]1CC2=O	43.6 µM	> 77.9 µM	> 67 µM	57 µM	> 72.1 µM	60.2 µM	> 67.6 µM	46.2 µM	47 µM	49.2 µM	–	–	–	–	–	–	–	–	–	–
C[C@H]1CCC/C=C/[C@@H]2C[C@H](OC3OC(CO)C(O)C(O)C3O)C[C@H]2[C@H](O)/C=C/C(=O)O1 (stereo partly drawn)	> 100 µM	> 100 µM	> 100 µM	> 100 µM	> 100 µM	42.9 µM	87.3 µM	> 100 µM	> 100 µM	31.6 µM	–	–	–	–	–	–	–	–	–	–
